# Entries after “also recorded” stand apart in the source; their conditions may differ.
# Key:
# Assay type in all cases: cell-based, human
# [1] = tested on: UBXN2A silenced clones of HCT-116; assay: Viability (MTT) and cell death (Sytox red flow cytometry) of UBXN2A silenced cells
# Description: We decided to confirm whether VTD-induced tumor suppression is indeed mediated via the UBXN2A-mot-2-p53 axis (FIG. 18H). After initial verification with WB (FIG. 18A), HCT-116 (p53+/+ and p53 −/−) and LoVo were treated with VTD for 24, 48, and 72 hours (FIG. 18B-D). […] We defined this phenomenon as a delayed cytotoxic response, since it occurs through UBXN2A transcription, as previously described for other anti-cancer agents. […] In the second set of experiments, we treated two stable UBXN2A silenced clones of HCT-116 along with controls with VTD. […] Staurosporine-treated cells were used as a positive control (S4F). […] Finally, to understand the contribution of mot-2 to the anti-cancer mechanism of VTD, we used a mot-2 inhibitor known as MKT-077 [7] along with VTD in well-differentiated SW-48 (WT-p53) colon cancer cells for 72 hours. Due to the critical role of mot-2 in the mitochondria, we could not use a silencing strategy for mot-2 in this set of experiments.
# (§1) The viability of cells was calculated as % of control.
# FIG. 18: Veratridine (VTD) functions via the UBXN2A-mot-2-p53 axis. (A) WB confirmed the presence and the absence of p53 protein in HCT-116 p53^(+/+) and HCT-116 p53^(−/−) cancer cell lines, respectively. […] (F) In another set of experiments, UBXN2A-silenced cells were treated with VTD (100, 200, and 300 μM) for 24 hours. […]
# [2] = tested on: LoVo; details: 10 days
# Description: Because colon cancer cells develop resistance to chemotherapy after an initial response, we decided to investigate whether VTD can potentiate the cytotoxic effect of 5-FU when cells receiving long-term therapy mimicking the in vivo therapy. Cells were treated with VTD for 10 days.
# (§2) Based on the significant effect of long-term exposure in LoVo and U2OS, we hypothesized that VTD could be a potential complementary strategy alongside 5-FU, an effective drug with a high rate of resistant events in colon tumors. To answer this question, we first determined the minimum concentration of 5-FU that has no effect or a very mild effect on cell viability after 10 days' exposure in three cell lines HCT-116, LoVo, and U2OS (data not shown). We performed the 10 days' treatment using a combination of a low dose of VTD (50 μM or 100 μM) plus a suboptimal dose of 5-FU (1 μM or 5 μM).
# FIG. 20: Sensitization of colon cancer cells to a long-term suboptimal dose of 5-fluorouracil exposure when combined with VTD. (A-D) (A) HCT-116, (B) LoVo, (C) SW-480, and (D) U2OS were treated with VTD (10-300 μM) for 10 days. […] (E-G) (E) HCT-116, (F) LoVo, and (G) U-2OS were treated with suboptimal doses of 5-FU and VTD (50 and 100 μM) for 10 days. […] (H-I) A series of flow cytometry assays using an antibody against the CD44 cancer stem cell marker illustrated that VTD can target CD44+ colon cancer stem cells and eventually eliminate them in a dose-dependent manner, implicating VTD as a potential cancer stem cell-targeting therapy. (J) Tumor tissue lysates from 48 patients with colon cancer along the matched adjacent normal colon tissue lysates were probed with anti-UBXN2A and anti-Actin antibodies, followed by quantitation and normalization of signals. […] (I) The proposed mechanism action of VTD. VTD increases the expression of UBXN2A, which releases the p53 from mot-2's sequestration and, together with standard chemotherapy, can cause an effective tumor suppression.
# [3] = tested on: LoVo; assay: Flow cytometry of CD44+ cancer stem cells; details: intermediate-dose of VTD
# Description: as §2
# (§3) FIG. 20: Sensitization of colon cancer cells to a long-term suboptimal dose of 5-fluorouracil exposure when combined with VTD. (A-D) (A) HCT-116, (B) LoVo, (C) SW-480, and (D) U2OS were treated with VTD (10-300 μM) for 10 days. […] (E-G) (E) HCT-116, (F) LoVo, and (G) U-2OS were treated with suboptimal doses of 5-FU and VTD (50 and 100 μM) for 10 days. […] (J) Tumor tissue lysates from 48 patients with colon cancer along the matched adjacent normal colon tissue lysates were probed with anti-UBXN2A and anti-Actin antibodies, followed by quantitation and normalization of signals. […]
# [4] = tested on: U2OS; assay: Flow cytometry of CD44+ cancer stem cells; details: intermediate-dose of VTD
# Description: as §2, §3
# [5] = tested on: SW480; assay: Cell detachment assay and live cell imaging; details: mutant p53
# Description: (§4) Based on the above results, we then hypothesized that VTD-induced UBXN2A leads to apoptosis and cell death mimicking the Tet-on induced-UBXN2A model (FIG. 15). As cell detachment and cell shrinking are ubiquitous aspects of apoptosis, we examined these features in four cancer cell lines: HCT116 (WT-p53), LoVo (WT-p53), SW-480 (mutant-p53), and U2OS (WT-p53), all in the presence of VTD (FIG. 17, S4).
# as §1
# (§5) FIG. 17: Induction of apoptosis and in vitro cytotoxicity by VTD in a human cancer cell line with different statuses of p53 and mot-2. (A-D) Cells were treated with VTD for 24, 48, and 72 hours. After incubation, dead cells were washed off, and the remaining attached cells were calculated by counting in five random fields using the Axiovert 200 M inverted microscope and AxioVision software (cell detachment assay). The % of cells attached was calculated as % of control cells. […] The data is shown as mean+SEM of three independent experiments (n=3, *p<0.05). (E-K) Cells were plated for 5 days, and the colonies of cells were treated with different concentration of VTD. The colonies of viable cells were stained with crystal violet dye and absorbance, as an index of measurement of colony forming units, was read at 562 nm (clonogenic survival assay). VTD induced a significant decrease in cell viability in a p53- and differentiation grade manner in HCT-116 poorly differentiated cells (E), HCT 116 p53+/−(F), HCT-116 p53−/− (G), LoVo well-differentiated cells (H), SW-480 (K), and two non-colon cancer cells: HepG2 (I) and U2OS (J). The data is shown as mean+SEM of three independent experiments (n=3, *p<0.05). (L) Determination of endogenous levels of mot-2, UBXN2A, HSC70, and p53 proteins in various cancer cell lines using WB. (M) HCT-116 cells were treated with VTD (10 and 30 μM) and cytoplasmic and nuclear fractions were subjected to WB. HSC70 and Orc-2 antibodies were used as cytoplasmic and nuclear markers, respectively.
# [6] = tested on: LoVo; assay: Cell detachment assay and live cell imaging; details: dose- and time-dependent
# Description: as §4, §1, §5
# [7] = tested on: HCT-116; assay: Cell detachment assay and live cell imaging; details: dose- and time-dependent
# Description: as §4, §1, §5
# [8] = tested on: U2OS; assay: Cell detachment assay and live cell imaging; details: dose- and time-dependent
# Description: as §4, §1, §5
smiles,measurement,setting,value
"COc1ccc(C(=O)O[C@H]2CC[C@@]3(C)[C@@H]4CC[C@H]5[C@]6(O)C[C@H](O)[C@@]7(O)[C@@H](CN8C[C@@H](C)CC[C@H]8[C@@]7(C)O)[C@]6(O)C[C@@]53O[C@]24O)cc1OC [VTD, Veratridine]",cell viability of UBXN2A silenced cells versus control cells upon VTD,[1]; MTT,greater cell viability than control cells; also recorded: significantly higher as compared to control cells
same,cell death (Sytox red) of UBXN2A silenced cells upon VTD,"[1]; VTD 100, 200 and 300 μM, 24 hours",significant decrease in the cell death; also recorded: significantly decreases cell death
same,"cell viability, long-term exposure",[2]; VTD 10-300 μM,significant decrease in cell viability in a dose-dependent manner
same,cytotoxic effect of suboptimal 5-FU in presence of VTD,[2]; VTD 50 or 100 μM plus 5-FU 1 or 5 μM,significantly potentiated the cytotoxic effect of the suboptimal dose of 5-FU
same,abundance of CD44+ cancer stem cells,[3],reduces the abundance of the CD44+ cancer stem cells
same,abundance of CD44+ cancer stem cells,[4],reduces the abundance of the CD44+ cancer stem cells
same,cell detachment (% of cells attached),"[5]; 24, 48 and 72 hours",no effect on cell detachment; also recorded: not with mutant p53
same,cell shrinking and rounding (live cell imaging),[5],remain unchanged
same,cell detachment (% of cells attached),"[6]; 24, 48 and 72 hours",significantly increases cell detachment; also recorded: significantly decreases the % of cells attached
same,cell shrinking and rounding (live cell imaging),[6],induces cell shrinking and rounding
same,cell detachment (% of cells attached),"[7]; 24, 48 and 72 hours",significantly increases cell detachment; also recorded: significantly decreases the % of cells attached
same,cell shrinking and rounding (live cell imaging),[7],induces cell shrinking and rounding
same,cell detachment (% of cells attached),"[8]; 24, 48 and 72 hours",significantly increases cell detachment; also recorded: significantly decreases the % of cells attached
same,cell shrinking and rounding (live cell imaging),[8],induces cell shrinking and rounding

# Source: US12233129B2, “Methods and compositions for the treatment of cancer” (priority 2019, dated 2025)
